These are literature values, as cited in US12576064B2, “Urolithin gummy (pectin) formulations” (Amazentis SA, priority 2023, dated 2026).

The data set relates to myotubes. The settings on record: in vitro.

For the compound `O=c1oc2cc(O)ccc2c2ccccc12` [Urolithin B], the “mean diameter of myotubes” value is “increased”.
For `O=c1oc2cc(O)ccc2c2ccc(O)cc12` [Urolithin A], the “mean diameter of myotubes” value is “not seen”.
